The subject of data set [1] is monoclonal mouse anti-AMX antibody A1463 (clone 1.BB.832). Description: indirect competitive ELISA (calibration curves of β-lactams and hydrolysis products). The settings on record: for reduction of LOD by hydrolysis: after hydrolysis; for IC50: read-out: IC50 (ELISA calibration curve). The format is binding. The protocol: For the preparation of standards (calibrators), stock solutions of each compound with a mass concentration of approximately 1 g/L were prepared gravimetrically by weighing the respective compound and amount of solvent. Solvents for these stock solutions were ethanol for amoxicillin piperazine-2,5-dione and 3-(4-hydroxyphenyl)pyrazin-2-ol, or Milli-Q water for all other compounds. Standard solutions of each compound were prepared volumetrically by serial dilution of the respective stock solution in Milli-Q water. All standards and stock solutions were stored at 4 °C in the amber glass vials.
(§1) For hydrolysis, standards and samples were diluted in 0.1 M sodium hydroxide solution (1:1) the day before analysis in the assay, i.e., the day of coating (see below), and stored at 4 °C until the next day. Samples for reference analysis without hydrolysis were diluted in Milli-Q water (1:1) prior to analysis.
Each cavity of a 96-well microplate was coated with AMX-HSA (or alternatively AMX-BSA) in PBS (47.619 ng/L, 200 µL/well) and incubated for 18 h at RT with shaking at 750 rpm. Afterwards the plate was washed three times with washing buffer (1:60 dilution of washing buffer 60x in Milli-Q water) and the cavities were blocked with 0.1% (w/v) casein in PBS (200 µL/well) for 1 h at 750 rpm and RT. After repeated washing, standards/samples (100 µL/well) and primary antibody (dilution 1:20,000 in Tris for preliminary and cross-reactivity studies, in sample buffer pH 7.6 for sample analysis or in sample buffer pH 8.5 for reference analysis for degree of hydrolysis; 100 µL/well) were added and incubated for 1 h at 750 rpm and RT. Following another washing step, the plate was incubated with secondary antibody (95.238 ng/L, 200 µL/well) for 1 h at 750 rpm at RT. After final washing, cavities were filled with freshly prepared substrate solution (22 mL citrate buffer, 8.5 µL hydrogen peroxide solution, 550 µL TMB stock solution; 200 µL/well) and shaken for 10 min (preliminary and cross-reactivity studies) or 20 min (sample analysis, degree of hydrolysis) at 750 rpm for blue color development. […] Optical density was read at RT at a wavelength of 450 nm with reference at 620 nm. Data points were plotted in Origin® 2019 (OriginLab, Northampton, MA, USA), calibration curves were obtained by fitting a four-parameter logistic function to the measured data points and sample concentrations were determined by correlating concentration values of hydrolyzed standards with O.D. values of hydrolyzed and non-hydrolyzed samples. Each standard (8 per plate) and sample (24 per plate) was analyzed in triplicate with random distribution across the plate to reduce edge effects.
(ELISA stands for enzyme-linked immunosorbent assay.)

Data set [2] is described as follows: hydrolysis of AMX in standard solutions and water samples, followed by ELISA. The data set is classed as physicochemical. The settings on record: for reaction time after which no further shift in the calibration curve was observable (hydrolysis): 0.1 M NaOH. The protocol: While developing and optimizing an indirect competitive ELISA for the determination of AMX, we observed a significant shift in the calibration curves obtained for differently aged standard solutions (calibrators) of AMX in water. […] This shift reached its end point after two months of storage at 4 °C and could be ascribed to hydrolysis of the parent drug by hydrolyzing standard solutions of AMX in 0.1 M NaOH, which yielded a similar calibration curve in the ELISA (see Figure 2).
In order to examine the degree of hydrolysis of AMX in these samples, a parallel analysis in the ELISA without pretreatment with 0.1 M NaOH was carried out and concentration values determined with and without hydrolysis were compared. […] Because of the antibody’s lower affinity towards unhydrolyzed AMX (higher IC50), higher O.D. values are found which correlate with lower concentration values in the calibration curve. This was the case for all of the tested mineral waters after 20 h. Contrarily, for tap water samples (P1–P4) the analysis without hydrolysis led to higher concentration values than the assay featuring hydrolysis, implying that hydrolysis of AMX had already occurred in these samples. […] The reason for that may lie in general properties of tap water containing particles or metal ions, e.g., Cu^2+, which can serve as catalysts for AMX hydrolysis. Furthermore, the storage of the water samples might have an effect as tap water for sample preparation was collected and stored in a glass bottle whereas mineral water samples were taken directly from plastic bottles. Anyhow, the influence of the pH value of the water can be ruled out since the values were within a range from 6.6 to 8.0 and no general trend was observable. The same holds true for ionic constituents (see Supplementary Table S1).
as §1

Where [3] appears, read: non-hydrolyzed standard solutions (freshly prepared / before hydrolysis; pure compounds).
The mark [4] stands for this setting: standards after alkaline hydrolysis (0.1 M NaOH, 24 h at 4 °C).

Consider seven molecules from PMC8001000, “Pitfalls in the Immunochemical Determination of β-Lactam Antibiotics in Water” (Antibiotics, 2021).

Like-named read-outs stand apart in the source and are kept apart here.

As for `CC1(C)S[C@@H]2[C@H](NC(=O)COc3ccccc3)C(=O)N2[C@H]1C(=O)O` [PenV, penicillin V], the “reduction of LOD by hydrolysis” value in data set [1] is 85%. The IC50 came out at 702 ± 66 nM in data set [1] (setting [3]) and 11.6 ± 2.5 nM in data set [1] (setting [4]).

As to `CC1(C)S[C@@H]2[C@H](NC(=O)[C@H](N)c3ccccc3)C(=O)N2[C@H]1C(=O)O` [AMP, ampicillin], the IC50 amounted to 1350 ± 130 nM in data set [1] (setting [3]) and 36.2 ± 3.7 nM in data set [1] (setting [4]).

Turning to `CC1(C)S[C@@H]2[C@H](NC(=O)[C@H](N)c3ccc(O)cc3)C(=O)N2[C@H]1C(=O)O` [AMX, amoxicillin], the values for the IC50 in data set [1] (setting [3]), in data set [1] (standard solutions aged for 2 months at 4 °C in water) and in data set [1] (setting [4]) were 1470 ± 120 nM, 52.2 ± 4.4 nM and 38.1 ± 3.6 nM, respectively. Besides, the “reaction time after which no further shift in the calibration curve was observable (hydrolysis)” value stood at 18 h in data set [2] (pH 12.5, 4 °C) and 3 h in data set [2] (pH 12.5, RT). Moreover, the “rate of hydrolysis in drinking water samples” value in data set [2] (spiked tap water vs bottled mineral water, after 20 h) is reported as “much faster in tap water than in bottled mineral water”. In data set [2] (standard solutions in water, storage at 4 °C), the “storage time until shift of calibration curve reached its end point (hydrolysis)” value is listed as “two”.

For `CC1(C)SC(C2NC(=O)C(c3ccc(O)cc3)NC2=O)NC1C(=O)O` (centres unmarked) [HP2, amoxicillin piperazine-2,5-dione], in data set [1] (setting [3]), the IC50 was found to be 28700 nM.

Consider `CC1(C)SC(C(NC(=O)[C@H](N)c2ccc(O)cc2)C(=O)O)NC1C(=O)O` (some centres unmarked) [HP1, amoxicilloic acid], for which the “fold higher affinity of the antibody than to the parent drug AMX” value in data set [1] (HP1 vs AMX) is given as “approximately 200 fold”. Further, in data set [1] (setting [3]), the IC50 stood at 7.48 ± 0.58 nM.

For `CC1(C)S[C@@H]2[C@H](NC(=O)C(C(=O)O)c3ccccc3)C(=O)N2[C@H]1C(=O)O` (some centres unmarked) [CRB, carbenicillin], the values for the IC50 in data set [1] (setting [3]) and in data set [1] (setting [4]) were 11 ± 0.4 nM and 3.8 ± 0.5 nM, respectively.

`CC1(C)S[C@@H]2[C@H](NC(=O)Cc3ccccc3)C(=O)N2[C@H]1C(=O)O` [PenG, penicillin G]: the “reduction of LOD by hydrolysis” value in data set [1] is on record as 85%. The IC50 in data set [1] (setting [3]) worked out at 700 ± 70 nM; in data set [1] (setting [4]), 11.1 ± 1.7 nM.
